Experimental data published in patent US12187709B2 (Genentech, Inc., priority 2021, dated 2025).

Assays:
[1] = molecular target: Cbl-b (Homo sapiens (Human), UniProt Q13191); experiment: Cbl-b LCK Ub TR-FRET assay (Cbl-b Lck HTRF); type: biochemical; details: for IC50: Cbl-b LCK Ub TR-FRET; for (fold-selectivity) Cbl-b and C-Cbl Selectivity / fold-selectivity (Cbl-b over C-cbl): ratio C-cbl Lck HTRF IC50 / Cbl-b Lck HTRF IC50
Summary of the method: (§1)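 Signal is read once the detection mix has stood 20 min at ambient temperature. Curves are anchored by DMSO as maximum and by omission of LCK as minimum.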

[2] = molecular target: c-Cbl (Homo sapiens (Human), UniProt P22681); experiment: C-Cbl LCK Ub TR-FRET assay (C-cbl Lck HTRF); type: biochemical
c-Cbl, sequence (P22681 47-435): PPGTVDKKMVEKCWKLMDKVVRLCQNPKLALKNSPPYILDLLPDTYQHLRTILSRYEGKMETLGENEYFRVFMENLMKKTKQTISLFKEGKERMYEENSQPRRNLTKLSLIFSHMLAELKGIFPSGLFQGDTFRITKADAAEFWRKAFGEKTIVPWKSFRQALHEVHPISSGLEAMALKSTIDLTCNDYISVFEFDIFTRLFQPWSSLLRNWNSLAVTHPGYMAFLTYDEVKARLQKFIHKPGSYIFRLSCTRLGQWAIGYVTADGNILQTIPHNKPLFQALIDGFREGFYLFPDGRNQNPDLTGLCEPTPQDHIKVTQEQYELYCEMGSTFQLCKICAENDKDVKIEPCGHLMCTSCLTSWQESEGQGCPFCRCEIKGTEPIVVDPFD
Summary of the method: as §1

[3] = molecular target: c-Cbl (residues 47-435) (Homo sapiens (Human), UniProt P22681); experiment: c-Cbl SPR assay; type: binding; details: 20° C.
c-Cbl (residues 47-435), sequence (P22681 47-435): as above
Summary of the method: (§2)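 Values derive from a 1:1 model fitted to multicycle kinetics on captured protein (1300-1500 RU), using six 2-fold concentrations, 60 s contact and dissociation of 120-1200 s. In the chaser format, kd comes from a single-exponential fit of % site occupancy over time.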

[4] = molecular target: Human Cbl-b (residues 40-426) (Homo sapiens (Human), UniProt Q13191); experiment: Cbl-b SPR assay; type: binding; details: for Fold of selectivity: C-cbl SPR Kd vs Cbl-b SPR Kd; for Kd: SPR, 20° C.
Human Cbl-b (residues 40-426), sequence (Q13191 40-426): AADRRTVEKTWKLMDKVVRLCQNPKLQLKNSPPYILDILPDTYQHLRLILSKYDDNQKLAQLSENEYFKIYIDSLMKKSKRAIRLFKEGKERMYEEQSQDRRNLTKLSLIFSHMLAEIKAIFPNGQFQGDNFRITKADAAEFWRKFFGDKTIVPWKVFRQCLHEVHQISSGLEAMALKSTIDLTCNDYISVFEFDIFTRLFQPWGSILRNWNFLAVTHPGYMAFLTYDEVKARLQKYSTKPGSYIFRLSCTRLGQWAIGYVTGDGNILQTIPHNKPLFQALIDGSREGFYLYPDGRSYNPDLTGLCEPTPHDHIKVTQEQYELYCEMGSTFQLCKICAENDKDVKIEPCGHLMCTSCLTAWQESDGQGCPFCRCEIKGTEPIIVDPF
Summary of the method: as §2

Cbl-b, sequence (Q13191 40-426): as above

| IC50 ([1]; Example 121) [nM] | (fold-selectivity) Cbl-b and C-Cbl Selectivity [1] [x] | IC50 [2] [nM] | Kd [3] [nM] | Fold of selectivity [4] [×] | Kd [4] [nM] | IC50 [1] [nM] | fold-selectivity (Cbl-b over C-cbl) [1] | SMILES |
| --- | --- | --- | --- | --- | --- | --- | --- | --- |
| 4.1 | 1.1 | 4.5 | 0.7 | 1.8 | 0.4 |  |  | C[C@@H](NC1(C)CCC1)c1cc2c(c(C(F)(F)F)c1)CN(c1cccc([C@H](c3nncn3C)C3COC3)c1)C2=O [Compound 444, 2-(3-((R)-(4-methyl-4H-1,2,4-triazol-3-yl)(oxetan-3-yl)methyl)phenyl)-6-((R)-1-((1-methylcyclobutyl)amino)ethyl)-4-(trifluoromethyl)isoindolin-1-one] |
|  |  | 200 | 150 | 7.1 | 21 | 40 | 5.0x | CO[C@H]1C[C@@](c2cc(N[C@@H](C)CC#N)cc(N3Cc4c(cc(CNC5(C)CCC5)cc4C(F)(F)F)C3=O)c2)(c2nncn2C)C1 (single isomer, unassigned) [Compound 233] |
|  |  | 16 | 11 | 11 | 1 | 6.4 | 2.5x | CC[C@H]1C[C@](c2cccc(N3Cc4c(Cl)cc(CNC5(C)CCC5)cc4C3=O)c2)(c2nncn2C)C1 [Compound 375, 4-chloro-2-(3-((1s,3r)-3-ethyl-1-(4-methyl-4H-1,2,4-triazol-3-yl)cyclobutyl)phenyl)-6-(((1-methylcyclobutyl)amino)methyl)isoindolin-1-one] |
| 220 | 5.4 | 1200 | 920 | 8.0 | 120 |  |  | CO[C@H]1C[C@](c2cccc(N3Cc4ccc(CNC5(C)CCC5)cc4C3=O)c2)(c2nncn2C)C1 [Compound 449, 2-(3-((1r,3r)-3-methoxy-1-(4-methyl-4H-1,2,4-triazol-3-yl)cyclobutyl)phenyl)-6-(((1-methylcyclobutyl)amino)methyl)isoindolin-1-one] |
| 6.2 | 1.4 | 8.6 | 9.1 | 3.6 | 2.5 |  |  | Cn1cnnc1[C@@H](c1cccc(N2Cc3c(cc(CNC4(C)CC4)cc3C(F)(F)F)C2=O)c1)C1COC1 (single isomer, unassigned) [Compound 466] |
|  |  | 99 | 90 | 9.0 | 10 | 30 | (3.3x) | Cn1cnnc1[C@]1(c2cccc(N3Cc4c(cc(CNC5(C)CCC5)cc4C(F)(F)F)C3=O)c2)C[C@](C)(O)C1 [Compound 26, 2-(3-((1s,3s)-3-hydroxy-3-methyl-1-(4-methyl-4H-1,2,4-triazol-3-yl)cyclobutyl)phenyl)-6-(((1-methylcyclobutyl)amino)methyl)-4-(trifluoromethyl)isoindolin-1-one] |
|  |  | 180 | 290 | 14 | 19 | 76 | 2.4x | Cn1cnnc1C(c1cccc(N2Cc3c(cc(CNC4(C)CCC4)cc3C(F)(F)F)C2=O)c1)C1CC(F)(F)C1 (racemic) [Compound 145, 2-(3-((3,3-difluorocyclobutyl)(4-methyl-4H-1,2,4-triazol-3-yl)methyl)phenyl)-6-(((1-methylcyclobutyl)amino)methyl)-4-(trifluoromethyl)isoindolin-1-one] |
| 18 | 6.7 | 110 | 110 | 12 | 8.5 |  |  | COCC1(NCc2cc3c(c(C(F)(F)F)c2)CN(c2cccc([C@]4(c5nncn5C)C[C@H](OC)C4)c2)C3=O)CCC1 [Compound 495, 2-(3-((1r,3r)-3-methoxy-1-(4-methyl-4H-1,2,4-triazol-3-yl)cyclobutyl)phenyl)-6-(((1-(methoxymethyl)cyclobutyl)amino)methyl)-4-(trifluoromethyl)isoindolin-1-one] |
|  |  | 4.9 | 0.35 | 3.5 | 0.1 | 5.3 | 0.92x | C[C@@H](NC1(C)CCC1)c1cc(Cl)c2c(c1)C(=O)N(c1cccc([C@]3(c4nncn4C)C[C@@H](F)C3)c1)C2 (single isomer, unassigned) [Compound 288] |
|  |  | 39 | 34 | 13 | 2.7 | 13 | 3.0x | C=C[C@H](C)Nc1cc(N2Cc3c(cc(CNC4(C)CCC4)cc3C(F)(F)F)C2=O)cc([C@]2(c3nncn3C)C[C@H](OC)C2)c1 (single isomer, unassigned) [Compound 220] |
|  |  | 16000 | 11000 | 2.2 | 5200 | 7800 | 2.0x | CO[C@H]1C[C@@](c2cccc(N3Cc4c(cccc4C(F)(F)F)C3=O)c2)(c2nncn2C)C1 [Compound 190, 2-(3-((1s,3s)-3-methoxy-1-(4-methyl-4H-1,2,4-triazol-3-yl)cyclobutyl)phenyl)-4-(trifluoromethyl)isoindolin-1-one] |
|  |  | 140 | 280 | 3.6 | 78 | 61 | 2.3x | Cn1cnnc1C(c1cccc(N2Cc3c(cc(CNC4(C)CCC4)cc3C(F)(F)F)C2=O)c1)[C@H]1C[C@H](CC#N)C1 (single isomer, unassigned) [Compound 363] |
| 4.5 | 1.4 | 6.2 | 1.6 | 5.3 | 0.3 |  |  | Cn1cnnc1[C@]1(c2cccc(N3Cc4c(cc(CNC5(C)CCC5)cc4C(F)F)C3=O)c2)C[C@@H](Cl)C1 [Compound 447, 2-(3-((1r,3r)-3-chloro-1-(4-methyl-4H-1,2,4-triazol-3-yl)cyclobutyl)phenyl)-4-(difluoromethyl)-6-(((1-methylcyclobutyl)amino)methyl)isoindolin-1-one] |
| 130 | 6.8 | 880 | 1900 | 11 | 170 |  |  | CCC(NCc1cc2c(c(C(F)(F)F)c1)CN(c1cccc([C@]3(c4nncn4C)C[C@H](OC)C3)c1)C2=O)C(=O)OC (stereo partly drawn) [Compound 425, methyl 2-(((2-(3-((1r,3r)-3-methoxy-1-(4-methyl-4H-1,2,4-triazol-3-yl)cyclobutyl)phenyl)-3-oxo-7-(trifluoromethyl)isoindolin-5-yl)methyl)amino)butanoate] |
|  |  | 52 | 24 | 2.6 | 9.3 | 24 | 2.2x | CO[C@H]1C[C@](c2cc(OC(C)C)cc(N3Cc4c(cc(CNC5(C)CCC5)cc4C(F)(F)F)C3=O)c2)(c2nncn2C)C1 [Compound 207, 2-(3-isopropoxy-5-((1r,3r)-3-methoxy-1-(4-methyl-4H-1,2,4-triazol-3-yl)cyclobutyl)phenyl)-6-(((1-methylcyclobutyl)amino)methyl)-4-(trifluoromethyl)isoindolin-1-one] |
|  |  | 11 | 2.3 | 0.6 | 4 | 12 | (0.94x) | Cn1cnnc1[C@]1(c2cccc(N3Cc4c(cc(CNC5(C)CCC5)cc4C(F)(F)F)C3=O)c2)C[C@H](C)C1 [Compound 34, 2-(3-((1s,3s)-3-methyl-1-(4-methyl-4H-1,2,4-triazol-3-yl)cyclobutyl)phenyl)-6-(((1-methylcyclobutyl)amino)methyl)-4-(trifluoromethyl)isoindolin-1-one] |
|  |  | 1000 | 1500 | 7.2 | 210 | 240 | 4.3x | CO[C@H]1C[C@@](O)(C(c2cccc(N3Cc4c(cc(CNC5(C)CCC5)cc4C(F)(F)F)C3=O)c2)c2nncn2C)C1 (single isomer, unassigned) [Compound 369] |
| 7.3 | 4.1 | 30 | 64 | 12 | 4.7 |  |  | CO[C@H]1C[C@](c2cccc(N3Cc4c(cc(CNC5CC(C#N)C5)cc4C(F)(F)F)C3=O)c2)(c2nncn2C)C1 (stereo partly drawn) [Compound 505, 3-(((2-(3-((1r,3r)-3-methoxy-1-(4-methyl-4H-1,2,4-triazol-3-yl)cyclobutyl)phenyl)-3-oxo-7-(trifluoromethyl)isoindolin-5-yl)methyl)amino)cyclobutanecarbonitrile] |
|  |  | 4.1 | 1 | 3.3 | 0.3 | 7.2 | 0.56x | CCOc1cc(N2Cc3c(cc(CNC4(C)CCC4)cc3C(F)(F)F)C2=O)cc([C@]2(c3nncn3C)C[C@H](C)C2)c1 [Compound 189, 2-(3-ethoxy-5-((1r,3r)-3-methyl-1-(4-methyl-4H-1,2,4-triazol-3-yl)cyclobutyl)phenyl)-6-(((1-methylcyclobutyl)amino)methyl)-4-(trifluoromethyl)isoindolin-1-one] |
